{"source": "ChEMBL document CHEMBL1127842", "about": "“The desferrithiocin pharmacophore” (1994)", "key": {"Rattus norvegicus [1]": {"organism": "Rattus norvegicus", "test": "Efficiency of iron clearance was determined", "format": "functional", "parameters": "concentration or dose not given beside the values"}, "Rattus norvegicus [2]": {"tested_on": "Rattus norvegicus", "test": "Tested for Iron clearance of compound, when administered subcutaneously at a dose 150 umol/kg in bile duct cannulated rat", "format": "functional", "conditions": "in the assay text read “orally” for “subcutaneously”"}, "Rattus norvegicus [3]": {"organism": "Rattus norvegicus", "test": "Tested for formation constant of the compound", "format": "functional"}, "Rattus norvegicus [4]": {"tested_on": "Rattus norvegicus", "test": "Tested for Iron clearance of compound, when administered orally at a dose 150 umol/kg in bile duct cannulated rat; Inactive"}}, "note": "“And” between values parts separate entries of the source, which are not always exact repeats. Equal values may be shown once. The source made the active and inactive calls. The calls are words filed in the database; no cut-off is given here.", "data": [{"molecule": "O=C(O)[C@@H]1CSC(c2ncccc2O)=N1", "values": [{"measurement": "Efficiency", "setting": "Rattus norvegicus [1]", "value": 3.9, "unit": "%"}, {"measurement": "Iron clearence", "setting": "Rattus norvegicus [2]", "value": 166, "unit": "µg/kg"}]}, {"molecule": "CN(O)C(=O)[C@H]1CSC(c2ncccc2O)=N1", "values": [{"measurement": "Efficiency", "setting": "Rattus norvegicus [1]", "value": 3.1, "unit": "%"}]}, {"molecule": "O=C(O)[C@H]1CSC(c2ncccc2O)=N1", "values": [{"measurement": "Efficiency", "setting": "Rattus norvegicus [1]", "value": 2.4, "unit": "%"}, {"measurement": "Iron clearence", "setting": "Rattus norvegicus [2]", "value": 101, "unit": "µg/kg"}, {"measurement": "Kf", "setting": "Rattus norvegicus [3]", "value": "4e+29", "unit": "M⁻¹"}]}, {"molecule": "CC(=O)N(O)CCCCCNC(=O)CCC(=O)N(O)CCCCCNC(=O)CCC(=O)N(O)CCCCCN", "note": "[DEFEROXAMINE]", "values": [{"measurement": "Efficiency", "setting": "Rattus norvegicus [1]", "value": "2.8% and 1%"}]}, {"molecule": "O=C(O)C1CCSC(c2ncccc2O)=N1", "note": "(stereo not drawn)", "values": [{"measurement": "Iron clearence", "setting": "Rattus norvegicus [4]", "value": "inactive"}]}]}
